From patent US20250230193A1, “CYCLIC COMPOUND HAVING SELECTIVE KRAS INHIBITORY EFFECT ON HRAS AND NRAS” (CHUGAI SEIYAKU KABUSHIKI KAISHA, priority 2022, published 2025)

Key:
[1] = target: GDP-bound NRAS wild-type protein (Homo sapiens, UniProt P01111); assay: Binding to NRAS by surface plasmon resonance (SPR), Single Cycle Kinetics; conditions: KD ratio, GDP-bound NRAS wild-type vs GDP-bound KRAS wild-type, SPR
[2] = target: GDP-bound HRAS wild-type protein (Homo sapiens, UniProt P01112); assay: Binding to HRAS by surface plasmon resonance (SPR), Single Cycle Kinetics; conditions: KD ratio, GDP-bound HRAS wild-type vs GDP-bound KRAS wild-type, SPR
Chain of GDP-bound HRAS wild-type protein (P01112 whole entry): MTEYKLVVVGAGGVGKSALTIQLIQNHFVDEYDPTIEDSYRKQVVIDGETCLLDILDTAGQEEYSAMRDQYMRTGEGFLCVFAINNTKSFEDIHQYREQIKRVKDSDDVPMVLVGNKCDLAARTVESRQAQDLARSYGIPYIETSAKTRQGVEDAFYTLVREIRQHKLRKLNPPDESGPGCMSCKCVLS

Chain of GDP-bound NRAS wild-type protein (P01111 whole entry): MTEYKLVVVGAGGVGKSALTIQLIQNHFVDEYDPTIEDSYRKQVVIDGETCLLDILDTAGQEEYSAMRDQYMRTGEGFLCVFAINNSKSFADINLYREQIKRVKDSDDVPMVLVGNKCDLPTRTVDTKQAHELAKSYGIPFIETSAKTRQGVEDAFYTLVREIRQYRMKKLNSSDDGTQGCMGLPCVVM

Row | Structure (SMILES) | NRAS/KRAS (ratio of KD value with respect to NRAS to KD value with respect to KRAS) [1] | HRAS/KRAS (ratio of KD value with respect to HRAS to KD value with respect to KRAS) [2]
1 | CC[C@H](C)[C@@H]1NC(=O)[C@H](CC(C)C)N(C)C(=O)C[C@@H](C(=O)N2CCOCC2)N(C)C(=O)[C@H](C2CCCC2)N(C)C(=O)C2(CCC2)NC(=O)[C@@H]2C[C@@H](O)CN2C(=O)[C@H](CCc2cc(F)c(C(F)(F)F)c(F)c2)NC(=O)CN(C)C(=O)[C@H](Cc2ccc(C(F)(F)F)cc2)N2CCCC[C@@H](C2=O)N(C)C(=O)CN(C)C1=O [PP0868] | C (A compound having a KD ratio of 0.1 or more and less than 3 is denoted as C) | B (a compound having 3 or more and less than 10 is denoted as B)
2 | CC[C@H](C)[C@@H]1NC(=O)[C@H](CC(C)C)N(C)C(=O)C[C@@H](C(=O)N2CCOCC2)N(C)C(=O)[C@H](C2CCCC2)N(C)C(=O)C2(CCC2)NC(=O)[C@@H]2[C@@H](O)CCN2C(=O)[C@H](CCc2cc(F)c(C(F)(F)F)c(F)c2)NC(=O)CN(C)C(=O)[C@H](Cc2ccc(C(F)(F)F)cc2)N2CCCC[C@@H](C2=O)N(C)C(=O)CN(C)C1=O [PP0869] | B (a compound having 3 or more and less than 10 is denoted as B) | B (a compound having 3 or more and less than 10 is denoted as B)
3 | CC[C@H](C)[C@@H]1NC(=O)[C@H](CC(C)C)N(C)C(=O)C[C@@H](C(=O)N2CCOCC2)N(C)C(=O)[C@H](C2CCCC2)N(C)C(=O)C2(CCC2)NC(=O)[C@@H]2[C@H](O)CCN2C(=O)[C@H](CCc2cc(F)c(C(F)(F)F)c(F)c2)NC(=O)CN(C)C(=O)[C@H](Cc2ccc(C(F)(F)F)cc2)N2CCCC[C@@H](C2=O)N(C)C(=O)CN(C)C1=O [PP0870] | B (a compound having 3 or more and less than 10 is denoted as B) | B (a compound having 3 or more and less than 10 is denoted as B)
4 | CC[C@H](C)[C@@H]1NC(=O)[C@H](CC(C)C)N(C)C(=O)C[C@@H](C(=O)N2CCOCC2)N(C)C(=O)[C@H](C2CCCC2)N(C)C(=O)C2(CCC2)NC(=O)[C@@H]2C[C@@H](O)CN2C(=O)[C@H](CCc2cc(F)c(C(F)(F)F)c(F)c2)NC(=O)CN(C)C(=O)[C@H](Cc2ccc(C(F)(F)F)cc2)N2CCCCC[C@@H](C2=O)N(C)C(=O)CN(C)C1=O [PP0871] | B (a compound having 3 or more and less than 10 is denoted as B) | B (a compound having 3 or more and less than 10 is denoted as B)
5 | CC[C@H](C)[C@@H]1NC(=O)[C@H](CC(C)C)N(C)C(=O)C[C@@H](C(=O)N2CCOCC2)N(C)C(=O)[C@H](C2CCCC2)N(C)C(=O)C2(CCC2)NC(=O)[C@@H]2[C@@H](O)CCN2C(=O)[C@H](CCc2cc(F)c(C(F)(F)F)c(F)c2)NC(=O)CN(C)C(=O)[C@H](Cc2ccc(C(F)(F)F)cc2)N2CCCCC[C@@H](C2=O)N(C)C(=O)CN(C)C1=O [PP0872] | A (a compound having 10 or more and less than 20 is denoted as A) | A (a compound having 10 or more and less than 20 is denoted as A)
6 | CC[C@H](C)[C@@H]1NC(=O)[C@H](CC(C)C)N(C)C(=O)C[C@@H](C(=O)N2CCOCC2)N(C)C(=O)[C@H](C2CCCC2)N(C)C(=O)C2(CCC2)NC(=O)[C@@H]2[C@H](O)CCN2C(=O)[C@H](CCc2cc(F)c(C(F)(F)F)c(F)c2)NC(=O)CN(C)C(=O)[C@H](Cc2ccc(C(F)(F)F)cc2)N2CCCCC[C@@H](C2=O)N(C)C(=O)CN(C)C1=O [PP0873] | A (a compound having 10 or more and less than 20 is denoted as A) | B (a compound having 3 or more and less than 10 is denoted as B)
7 | C=CC[C@H]1C(=O)N[C@@H]([C@@H](C)CC)C(=O)N(C)CC(=O)N(C)[C@H]2CCCCN(C2=O)[C@@H](Cc2ccc(C(F)(F)F)cc2)C(=O)N(C)CC(=O)N[C@@H](CCc2cc(F)c(C(F)(F)F)c(F)c2)C(=O)N2C[C@H](OCC)C[C@H]2C(=O)N[C@](C)(CC=C)C(=O)N(C)[C@@H](C2CCCC2)C(=O)N(C)[C@H](C(=O)N2CCOCC2)CC(=O)N1C [PP0874] | C (A compound having a KD ratio of 0.1 or more and less than 3 is denoted as C) | B (a compound having 3 or more and less than 10 is denoted as B)
8 | C=CCC[C@H]1C(=O)N[C@@H]([C@@H](C)CC)C(=O)N(C)CC(=O)N(C)[C@H]2CCCCN(C2=O)[C@@H](Cc2ccc(C(F)(F)F)cc2)C(=O)N(C)CC(=O)N[C@@H](CCc2cc(F)c(C(F)(F)F)c(F)c2)C(=O)N2C[C@H](OCC)C[C@H]2C(=O)N[C@](C)(CC=C)C(=O)N(C)[C@@H](C2CCCC2)C(=O)N(C)[C@H](C(=O)N2CCOCC2)CC(=O)N1C [PP0875] | C (A compound having a KD ratio of 0.1 or more and less than 3 is denoted as C) | B (a compound having 3 or more and less than 10 is denoted as B)
9 | C=CCCC[C@H]1C(=O)N[C@@H]([C@@H](C)CC)C(=O)N(C)CC(=O)N(C)[C@H]2CCCCN(C2=O)[C@@H](Cc2ccc(C(F)(F)F)cc2)C(=O)N(C)CC(=O)N[C@@H](CCc2cc(F)c(C(F)(F)F)c(F)c2)C(=O)N2C[C@H](OCC)C[C@H]2C(=O)N[C@](C)(CC=C)C(=O)N(C)[C@@H](C2CCCC2)C(=O)N(C)[C@H](C(=O)N2CCOCC2)CC(=O)N1C [PP0876] | C (A compound having a KD ratio of 0.1 or more and less than 3 is denoted as C) | C (A compound having a KD ratio of 0.1 or more and less than 3 is denoted as C)
10 | C=CCCCC[C@H]1C(=O)N[C@@H]([C@@H](C)CC)C(=O)N(C)CC(=O)N(C)[C@H]2CCCCN(C2=O)[C@@H](Cc2ccc(C(F)(F)F)cc2)C(=O)N(C)CC(=O)N[C@@H](CCc2cc(F)c(C(F)(F)F)c(F)c2)C(=O)N2C[C@H](OCC)C[C@H]2C(=O)N[C@](C)(CC=C)C(=O)N(C)[C@@H](C2CCCC2)C(=O)N(C)[C@H](C(=O)N2CCOCC2)CC(=O)N1C [PP0877] | C (A compound having a KD ratio of 0.1 or more and less than 3 is denoted as C) | B (a compound having 3 or more and less than 10 is denoted as B)
11 | C=CC[C@H]1C(=O)N[C@@H]([C@@H](C)CC)C(=O)N(C)CC(=O)N(C)[C@H]2CCCCCN(C2=O)[C@@H](Cc2ccc(C(F)(F)F)cc2)C(=O)N(C)CC(=O)N[C@@H](CCc2cc(F)c(C(F)(F)F)c(F)c2)C(=O)N2C[C@H](OCC)C[C@H]2C(=O)N[C@](C)(CC=C)C(=O)N(C)[C@@H](C2CCCC2)C(=O)N(C)[C@H](C(=O)N2CCOCC2)CC(=O)N1C [PP0878] | B (a compound having 3 or more and less than 10 is denoted as B) | B (a compound having 3 or more and less than 10 is denoted as B)
12 | C=CCC[C@H]1C(=O)N[C@@H]([C@@H](C)CC)C(=O)N(C)CC(=O)N(C)[C@H]2CCCCCN(C2=O)[C@@H](Cc2ccc(C(F)(F)F)cc2)C(=O)N(C)CC(=O)N[C@@H](CCc2cc(F)c(C(F)(F)F)c(F)c2)C(=O)N2C[C@H](OCC)C[C@H]2C(=O)N[C@](C)(CC=C)C(=O)N(C)[C@@H](C2CCCC2)C(=O)N(C)[C@H](C(=O)N2CCOCC2)CC(=O)N1C [PP0879] | B (a compound having 3 or more and less than 10 is denoted as B) | B (a compound having 3 or more and less than 10 is denoted as B)
13 | C=CCCC[C@H]1C(=O)N[C@@H]([C@@H](C)CC)C(=O)N(C)CC(=O)N(C)[C@H]2CCCCCN(C2=O)[C@@H](Cc2ccc(C(F)(F)F)cc2)C(=O)N(C)CC(=O)N[C@@H](CCc2cc(F)c(C(F)(F)F)c(F)c2)C(=O)N2C[C@H](OCC)C[C@H]2C(=O)N[C@](C)(CC=C)C(=O)N(C)[C@@H](C2CCCC2)C(=O)N(C)[C@H](C(=O)N2CCOCC2)CC(=O)N1C [PP0880] | B (a compound having 3 or more and less than 10 is denoted as B) | B (a compound having 3 or more and less than 10 is denoted as B)
14 | CCO[C@@H]1C[C@H]2C(=O)NC3(CCC3)C(=O)N(C)[C@@H](C3CCCC3)C(=O)N(C)[C@H](C(=O)N(C)C)CC(=O)N(C)[C@@H](CC)C(=O)N[C@@H]([C@@H](C)CC)C(=O)N(C)CC(=O)N(C)[C@H]3CCCCN(C3=O)[C@@H](Cc3ccc(C(F)(F)F)cc3)C(=O)N(C)CC(=O)N[C@@H](CCc3ccc(C(F)(F)F)c(C)c3)C(=O)N2C1 [PP0882] | C (A compound having a KD ratio of 0.1 or more and less than 3 is denoted as C) | B (a compound having 3 or more and less than 10 is denoted as B)
15 | CCO[C@@H]1C[C@H]2C(=O)NC3(CCC3)C(=O)N(C)[C@@H](C3CCCC3)C(=O)N(C)[C@H](C(=O)N(C)C)CC(=O)N(C)[C@@H](CC)C(=O)N[C@@H]([C@@H](C)CC)C(=O)N(C)CC(=O)N(C)[C@H]3CCCCN(C3=O)[C@@H](Cc3ccc(C(F)(F)F)cc3)C(=O)N(C)CC(=O)N[C@@H](CCc3ccc(C(F)(F)F)c(OC)c3)C(=O)N2C1 [PP0884] | C (A compound having a KD ratio of 0.1 or more and less than 3 is denoted as C) | C (A compound having a KD ratio of 0.1 or more and less than 3 is denoted as C)
